Test system: 885724-159-R-J1-PDC complex spheroid viability
Assay: Anticancer human tumor 885724-159-R-J1-PDC patient-derived pancreatic adenocarcinoma cell line growth inhibition [POLQ]
Conditions: for IC50: curve of first compound; for viability, T/C: stronger effect = lower value
Experimental: Multicellular complex tumor spheroid response to Polymerase (POL) inhibitors (novobiocin, ART-558, RP6685) in combination with a variety of drugs and investigational agents in selected tumor cell lines
The POL inhibitors (novobiocin, ART-558, and RP6685) were evaluated both individually and in combination with standard of care and investigational anticancer small molecules within a complex spheroid model of solid tumors. . Complex spheroids include a stromal component modeled by human endothelial cells (HUVEC) and fibroblasts modeled by human mesenchymal stem cells (MSCs). The concentration ranges selected for each drug and investigational agent were based upon clinically achievable concentrations if the clinical Cmax of the agent was known.
Compounds. The drugs and investigational agents: novobiocin (NSC847541), ART-558 (NSC835418), RP-6685 (NSC848927), peposertib (NSC802822), ceralasertib (NSC780249), elimusertib (NSC800525), camonsertib (NSC841442), AZD-1390 (NSC803789), olaparib (NSC753686), talazoparib (NSC767125), rucaparib (NSC756644), sotorasib (NSC818433), MRTX-1133 (NSC836407), SN-38 (NSC673596), topotecan (NSC609699), epotoside (NSC141540), doxorubicin (NSC123127), gemcitabine (NSC613327), 5-fluorouracil (NSC19893), paclitaxel (NSC125973), vemurafenib (NSC761431), MSA-2 (NSC828583), SN-011 (NSC837082), adavosertib (NSC754352), prexasertib (NSC758257), carboplatin (NSC241240) and oxaliplatin (NSC266046), were obtained from the National Cancer Institute (NCI) Developmental Therapeutics Program Chemical Repository (21). The FDA-approved anticancer drug set is available from the Developmental Therapeutics Program at https://dtp.cancer.gov/organization/dscb/obtaining/. […] The stock solutions were prepared in dimethyl sulfoxide (DMSO, Sigma-Aldrich, St. Louis, MO, cat. D2650), except for the platinum compounds which were prepared in saline (Quality Biological, Gaithersburg, MD, cat. 114-055-101), at 800-fold the tested concentration and stored at -70 degrees C prior to their use. All drugs and investigational agents were tested over a range starting from a high concentration at or near the clinical Cmax and decreasing in half-log increments. If the clinical Cmax for an agent had not been determined, the highest concentration tested was 10 microM, except for SN-38, which was tested at a high concentration of 1 microM.
Cell Culture. All cells were maintained in an incubator at 37 degrees C and 5% CO2 with 95% humidity. The PDC lines were cultured according to standard operating procedures established by the NCI PDMR (https://pdmr.cancer.gov). Table 3 of the manuscript, lists the cell lines along with the number of the three cell types plated to form the mct-spheroids and media for tumor cell growth. After thawing, all PDC lines, except 997537-175-T-J1-PDC and 415267-285-R-J2-PDC, were cultured in Matrigel-coated flasks prepared with a working solution of 1X Ham's F-12 nutrient mix, without supplementation (Thermo Fisher Scientific, cat. 11765054), 100 U/mL penicillin-streptomycin (Thermo Fisher Scientific, cat. 15140122), and 2.5% Matrigel (Corning Inc., Corning, NY, cat. 354248) for the first three passages. The two PDC lines 997537-175-T-J1-PDC and 415267-285-R-J2-PDC were cultured on uncoated flasks. The 857933-349-R-J2-PDC line was cultured in 6C/Colon 1B media containing advanced DMEM/F-12 (Thermo Fisher Scientific, cat. 12634028), 10 mM HEPES (Thermo Fisher Scientific, cat. 15630080), 1X GlutaMAX supplement (Thermo Fisher Scientific, cat. 35050061), 0.1 mg/mL primocin (InvivoGen, San Diego, CA, cat. ant-pm-2), 10% defined fetal bovine serum, heat inactivated (HyClone Laboratories Inc., Logan, UT, cat. SH30070.03HI), 50% L-WRN conditioned media (ATCC, cat. CRL-3276), 1.25 mM N-Acetyl-L-cysteine (Sigma-Aldrich, cat. A9165), 10 mM nicotinamide (Sigma-Aldrich, cat. N0636), 1X B-27 supplement (Thermo Fisher Scientific, cat. 17504044), 1X N-2 supplement (Thermo Fisher Scientific, cat. […]

[1] = second compound 0.0316 µM, first compound 0.00316 µM
[2] = second compound 0.0316 µM, first compound 0.01 µM
[3] = second compound 0.0316 µM, first compound 0.0316 µM
[4] = second compound 0.0316 µM, first compound 0.1 µM
[5] = second compound 0.0316 µM, first compound 0.316 µM
[6] = second compound 0.0316 µM, first compound 1 µM
[7] = second compound 0.1 µM, first compound 0.00316 µM
[8] = second compound 0.1 µM, first compound 0.01 µM
[9] = second compound 0.1 µM, first compound 0.0316 µM
[10] = second compound 0.1 µM, first compound 0.1 µM
[11] = second compound 0.1 µM, first compound 0.316 µM
[12] = second compound 0.1 µM, first compound 1 µM
[13] = second compound 0.316 µM, first compound 0.00316 µM
[14] = second compound 0.316 µM, first compound 0.01 µM
[15] = second compound 0.316 µM, first compound 0.0316 µM
[16] = second compound 0.316 µM, first compound 0.1 µM
[17] = second compound 0.316 µM, first compound 0.316 µM
[18] = second compound 0.316 µM, first compound 1 µM
[19] = second compound 1 µM, first compound 0.00316 µM
[20] = second compound 1 µM, first compound 0.01 µM
[21] = second compound 1 µM, first compound 0.0316 µM
[22] = second compound 1 µM, first compound 0.1 µM
[23] = second compound 1 µM, first compound 0.316 µM
[24] = second compound 1 µM, first compound 1 µM
[25] = second compound 3.16 µM, first compound 0.00316 µM
[26] = second compound 3.16 µM, first compound 0.01 µM
[27] = second compound 3.16 µM, first compound 0.0316 µM
[28] = second compound 3.16 µM, first compound 0.1 µM
[29] = second compound 3.16 µM, first compound 0.316 µM
[30] = second compound 3.16 µM, first compound 1 µM
[31] = second compound 10 µM, first compound 0.00316 µM
[32] = second compound 10 µM, first compound 0.01 µM
[33] = second compound 10 µM, first compound 0.0316 µM
[34] = second compound 10 µM, first compound 0.1 µM
[35] = second compound 10 µM, first compound 0.316 µM
[36] = second compound 10 µM, first compound 1 µM
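Further: spheroids exposed to compounds for 7 days.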

Compound CCc1c2c(nc3ccc(O)cc13)-c1cc3c(c(=O)n1C2)COC(=O)[C@]3(O)CC + Cc1cccc(N(C)C(=O)C2C(O)CCN2c2nc(C)cc(C(F)(F)F)c2C#N)c1 has an IC50 (second compound 0.0316 µM) of 96.3 nM, an IC50 (second compound 0.1 µM) of 66.8 nM and an IC50 (second compound 0.316 µM) of 75.2 nM. It also gave an IC50 (second compound 1 µM) of 58.8 nM, an IC50 (second compound 3.16 µM) of 53 nM and an IC50 (second compound 10 µM) of 56.8 nM. For the same compound, the viability, T/C [1] was 80.9%, the viability, T/C [2] was 53.6% and the viability, T/C [3] was 53.3%. The viability, T/C [4] was 52.6%, the viability, T/C [5] was 39.9% and the viability, T/C [6] was 5.13%. The viability, T/C [7] was 80.6%, the viability, T/C [8] was 64.4% and the viability, T/C [9] was 50.5%. It also gave a viability, T/C [10] of 49.4%, a viability, T/C [11] of 35.3% and a viability, T/C [12] of 4.47%. It also gave a viability, T/C [13] of 82.7%, a viability, T/C [14] of 68.3% and a viability, T/C [15] of 55.5%. It also gave a viability, T/C [16] of 47.4%, a viability, T/C [17] of 34.5% and a viability, T/C [18] of 4.66%. It also gave a viability, T/C [19] of 79.6%, a viability, T/C [20] of 65.8% and a viability, T/C [21] of 51.8%. The viability, T/C [22] was 46.8%, the viability, T/C [23] was 34.5% and the viability, T/C [24] was 4.77%. It also gave a viability, T/C [25] of 98%, a viability, T/C [26] of 62.3% and a viability, T/C [27] of 51.7%. The viability, T/C [28] was 50.7%, the viability, T/C [29] was 28.6% and the viability, T/C [30] was 4.41%. For the same compound, the viability, T/C [31] was 80.2%, the viability, T/C [32] was 64.9% and the viability, T/C [33] was 52.2%. For the same compound, the viability, T/C [34] was 46.4%, the viability, T/C [35] was 30.1% and the viability, T/C [36] was 4.59%.
C=CCn1c(=O)c2cnc(Nc3ccc(N4CCN(C)CC4)cc3)nc2n1-c1cccc(C(C)(C)O)n1 + Nc1ccc(C#CCN(C(=O)Cc2ncc(C(F)(F)F)cc2C(F)(F)F)c2ccc(F)cc2)nn1 gave an IC50 (second compound 0.0316 µM) of 762 nM, an IC50 (second compound 0.1 µM) of 667 nM and an IC50 (second compound 0.316 µM) of 630 nM. For the same compound, the IC50 (second compound 1 µM) was over 1000 nM, the IC50 (second compound 3.16 µM) was 779 nM and the IC50 (second compound 10 µM) was 880 nM. The viability, T/C [1] was 96.6%, the viability, T/C [2] was 96% and the viability, T/C [3] was 79.6%. It also gave a viability, T/C [4] of 67.8%, a viability, T/C [5] of 57.4% and a viability, T/C [6] of 47.3%. For the same compound, the viability, T/C [7] was 106%, the viability, T/C [8] was 95.1% and the viability, T/C [9] was 86.5%. For the same compound, the viability, T/C [10] was 73.8%, the viability, T/C [11] was 57.1% and the viability, T/C [12] was 45.8%. It also gave a viability, T/C [13] of 94.9%, a viability, T/C [14] of 92.2% and a viability, T/C [15] of 89.8%. For the same compound, the viability, T/C [16] was 73.9%, the viability, T/C [17] was 56.2% and the viability, T/C [18] was 46%. It also gave a viability, T/C [19] of 102%, a viability, T/C [20] of 92.6% and a viability, T/C [21] of 91.3%. For the same compound, the viability, T/C [22] was 76%, the viability, T/C [23] was 58.1% and the viability, T/C [24] was 53.3%. For the same compound, the viability, T/C [25] was 96.3%, the viability, T/C [26] was 101% and the viability, T/C [27] was 88.2%. The viability, T/C [28] was 73.9%, the viability, T/C [29] was 56% and the viability, T/C [30] was 48.3%. The viability, T/C [31] was 116%, the viability, T/C [32] was 98.2% and the viability, T/C [33] was 98.5%. The viability, T/C [34] was 81.4%, the viability, T/C [35] was 63.7% and the viability, T/C [36] was 48.2%.
